Measured values from US20030199494A1, “1,2,3,5-tetrahydrobenzo'c!azepin-4-one derivatives having muscarinic antagonist activity” (priority 2000, published 2003).

What was measured:
Format in all cases: cell-based
[1] = target: T1, M3 receptor (Cavia porcellus, UniProt H0W1Z3); experiment: Functional tissue assay, M3 guinea-pig ileum (antagonist pA2); settings: guinea-pig ileum, isometric contraction; antagonist pA2 per method; mean ± spread (n pts)
T1 construct: Sections (2 cm) are cut from the ileum of the killed guinea-pigs; from tissue; host or cells: guinea-pig ileum
Description: (§1) Functional Assays of M1, M2 and M3 Receptor Activity
(§2) Initial evaluation of test compounds is by assay of functional tissue responses. This has the advantage that it readily discriminates between agonist partial agonist and antagonist activity
(§3) Sections (2 cm) are cut from the ileum of the killed guinea-pigs, 10 cm from the ileo-caecal junction. One end is attached to a tissue holder/aerator and the other end via a cotton thread to an isometric transducer. The tissue is immersed in gassed normal Ca^2+ Krebs solution at 32±0.5° C. A resting tension of 0.5 g is applied and isometric contractions measured by computer or polygraph.
(§4) Following at least 30 min equilibration to allow twitches or tension to stabilize, cumulative concentration-response curves for the muscarinic agonists are constructed. The concentration is increased in half logarithmic increments after the contraction in the presence of each concentration has plateaued Steady-state contractions at each concentration are measured and the inhibition expressed as a percentage of the baseline twitch height in atria and vas deferens or as the maxi contraction in the ileum. EC50 values for the muscarinic agonists are determined from individual curves as the molar concentration required for 50% inhibition of twitch height or the 50% of maximum contraction (ileum). Geometric mean EC50 values and their 95% confidence limits are calculated.
(§5) A concentration-response curve to the test agonist is established in the absence of antagonist and after achieving the maximum effect, the agonist washed from the bath to restore twitch contractions. Three further concentration-response curves are then obtained in the same manner at approximately 30 min intervals, with the antagonist (Standards—pirenzepine M1, darifenacin M3, methoctramine M2) being introduced to the bath 15 min before each of these subsequent curves.
(§6) Concentration-response curves in the absence and presence of antagonist are measured as described for the agonist studies. The shifts in the concentration-response curves in the presence of antagonist compared with the absence of antagonist are expressed as the dose-ratios (DR) of the EC50 values. pA2 values are then determined from Schild analysis of plots of the mean corrected […] against log molar concentration of antagonist. The slopes of the Schild plots are determined by linear regression and the pA2 values determined from the intercept on the concentration axis (when log(DR−1) is zero). pA2 values are also determined from individual concentrations of antagonist by applying the equations: pA2=log(DR−1) log[B], wherein B is the molar concentration of antagonist.

[2] = test system: M3 receptor; experiment: as above; settings: ileum versus atria, log10 units
Description: as §1, §2, §3, §4, §5, §6

[3] = target: T2, M2 receptor (Cavia porcellus, UniProt H0VRN8); experiment: Functional tissue assay, M2 guinea-pig atria (antagonist pA2); settings: guinea-pig left atria, paced; antagonist pA2 per method; mean ± spread (n pts)
T2 construct: from tissue; host or cells: guinea-pig left atrium
T2 sequence (H0VRN8 1-466): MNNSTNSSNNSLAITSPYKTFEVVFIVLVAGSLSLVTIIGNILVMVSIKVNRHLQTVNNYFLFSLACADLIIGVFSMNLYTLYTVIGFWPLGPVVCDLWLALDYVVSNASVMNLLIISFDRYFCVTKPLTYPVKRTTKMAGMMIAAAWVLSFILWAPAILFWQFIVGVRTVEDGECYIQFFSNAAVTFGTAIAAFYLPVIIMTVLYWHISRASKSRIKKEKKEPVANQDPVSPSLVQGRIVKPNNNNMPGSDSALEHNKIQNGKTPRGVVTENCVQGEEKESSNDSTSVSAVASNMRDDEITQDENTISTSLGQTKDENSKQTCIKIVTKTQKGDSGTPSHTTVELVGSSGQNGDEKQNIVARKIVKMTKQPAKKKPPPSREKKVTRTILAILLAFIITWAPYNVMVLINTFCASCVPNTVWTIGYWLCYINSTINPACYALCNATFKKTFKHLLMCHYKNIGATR
Description: as §1, §2
Guinea-pigs are killed by a blow to the back of the head and left atrium removed. The atrium is secured to a pari of stainless steel electrodes by means of a cotton thread and immersed in the organ bath containing gassed Krebs solution with normal Ca^2 + at 32±0.50C. Atria are placed at 2 Hz with square-wave pulses of 0.5 ms pulse width. Isometric contractions are recorded by computer or polygraph.
Following at least 30 min equilibration to allow twitches or tension to stabilize, cumulative concentration-response curves for the muscarinic agonists are constructed. The concentration is increased in half logarithmic increments after the contraction in the presence of each concentration has plateaued Steady-state contractions at each concentration are measured and the inhibition expressed as a percentage of the baseline twitch height in atria and vas deferens or as the maxi contraction in the ileum. […]
Concentration-response curves in the absence and presence of antagonist are measured as described for the agonist studies. […]

T1 sequence (H0W1Z3 1-590): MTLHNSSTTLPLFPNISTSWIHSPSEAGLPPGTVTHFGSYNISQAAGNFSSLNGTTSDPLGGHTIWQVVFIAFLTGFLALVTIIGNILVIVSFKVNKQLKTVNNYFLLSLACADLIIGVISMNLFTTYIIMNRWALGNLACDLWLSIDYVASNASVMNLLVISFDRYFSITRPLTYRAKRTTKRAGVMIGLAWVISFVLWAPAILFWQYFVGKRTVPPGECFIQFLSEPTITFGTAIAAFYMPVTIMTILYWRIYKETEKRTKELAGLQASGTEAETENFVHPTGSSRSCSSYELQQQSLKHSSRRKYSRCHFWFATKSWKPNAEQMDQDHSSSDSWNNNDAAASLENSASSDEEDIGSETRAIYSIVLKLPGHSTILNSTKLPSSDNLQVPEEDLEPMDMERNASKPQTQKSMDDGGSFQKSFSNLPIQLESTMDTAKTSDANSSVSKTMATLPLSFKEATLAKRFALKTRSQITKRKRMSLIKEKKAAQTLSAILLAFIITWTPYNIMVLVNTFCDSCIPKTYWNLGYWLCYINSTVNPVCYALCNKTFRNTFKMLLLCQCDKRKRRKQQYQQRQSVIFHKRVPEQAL

SMILES | M3 (ileum) [1] | Log10 selectivity [2] | M2 antagonist pA2 (atria) [3]
O=C1CN(CCNCc2ccccc2)Cc2ccccc2[C@]1(O)C1CCC1 (stereo in doubt) [Compound 19, 2-[2-(benzylamino)ethyl]-5-cyclobutyl-5-hydroxy-1,3,4,5-tetrahydrobenzo[c]azepin-4-one] | 6.5 ± 0.4 (3 pts) | 1.6 ± 0.7 | 4.9 ± 0.6 (4 pts)
O=C1CN(CCCNCc2ccccc2)Cc2ccccc2[C@]1(O)C1CCC1 (stereo in doubt) [Compound 22, 2-[3-(Benzylamino)propyl]-5-cyclobutyl-5-hydroxy-1,2,3,5-tetrahydrobenzo[c]azepin-4-one] | 6.7 ± 0.4 (4 pts) | 1.5 ± 0.5 | 5.2 ± 0.3 (4 pts)
